Test results taken from patent publication US20030232986A1, “Inhibitors of caspases” (Vertex Pharmaceuticals Incorporated, priority 1998, published 2003).
pIC50: −log10 of the molar value. Where a SMILES comes first, the peptide text is derived from it. The star is where a group is joined. Bz = O=C(c1ccccc1)*

Tests used:
[1] = test system: Human Peripheral Blood Mononuclear Cells (PBMC), mature IL-1β; experiment: PBMC cell assay: IL-1β assay with human peripheral blood mononuclear cells; assay type: cell-based; conditions: LPS-stimulated human PBMC, mature IL-1β in supernatant by ELISA
Procedure, shortened: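 Donor PBMC (suspension at 6×10^6 cells/ml) or adherent-enriched monocytes were stimulated with 5 ng/ml LPS (final) alongside 5–6 compound dilutions bracketing the ICE Ki, at 0.1% DMSO final, for 16–18 hr at 37° C, 5% CO2. Mature IL-1β in supernatants was measured by ELISA; IC50 was calculated relative to LPS-only controls.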

[2] = test system: Human whole blood, IL-1β production; experiment: Whole blood assay for IL-1β production; assay type: cell-based; conditions: LPS-stimulated whole blood, IL-1β by ELISA
Procedure, shortened: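 LPS-stimulated (5.0 ng/ml final) human whole blood incubated with test compound in saline (or plasma/PBS-5% DMSO for hydrophobic compounds) at 30° C for 16-18 hr. Plasma IL-1β then measured by ELISA at 1:200 dilution, against no-LPS, no-inhibitor and vehicle controls.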

[3] = Single pass perfusion in rat: GI wall and liver metabolism, biliary excretion; assay type: in vitro ADME; conditions: for f (g) Xf (h): GI wall metabolism f(g) x liver metabolism f(h)
Protocol: Single pass perfusion studies in rat were performed to assess gastrointestinal (GI) wall metabolism (f(g)), liver metabolism (f(h)), and biliary excretion. The method used has been described in Pang, C. S., J. Pharmacol. Exp. Therapeutics, 333, pp. 788-798 (1984).

SMILES: CC(C)[C@H](NC(=O)c1nccc2ccccc12)C(=O)N1CCC[C@H]1C(=O)N[C@H](C=O)CC(=O)O [Example 5c]
- pIC50 [1]: 6.00 to 6.30
- pIC50 [2]: > 5.60
- Biliary Excretion [3]: C (Category “C” indicates >10%)
- f (g) Xf (h) [3]: A (category “A” indicates <0.25)

SMILES: CC(C)[C@H](NC(=O)c1cccc2c1-c1ccccc1C2=O)C(=O)N1CCC[C@H]1C(=O)N[C@H](C=O)CC(=O)O [Example 5k]
- pIC50 [1]: < 5.70
- pIC50 [2]: 5.12 to 5.60
- Biliary Excretion [3]: A (category “A” indicates <5%)
- f (g) Xf (h) [3]: B (Category “B” indicates 0.25-0.49)

SMILES: CC(C)[C@H](NC(=O)c1cc(Cl)c(O)c(Cl)c1)C(=O)N1CCC[C@H]1C(=O)N[C@H](C=O)CC(=O)O [Example 5m]
- pIC50 [1]: > 6.30
- pIC50 [2]: > 5.60
- Biliary Excretion [3]: C (Category “C” indicates >10%)
- f (g) Xf (h) [3]: B (Category “B” indicates 0.25-0.49)

SMILES: Cc1cc(C(=O)N[C@@H](C)C(=O)N2CCC[C@H]2C(=O)N[C@H](C=O)CC(=O)O)cc(C)c1O [Example 7c]
- pIC50 [1]: > 6.30
- pIC50 [2]: > 5.60

SMILES: C[C@H](NC(=O)c1nccc2ccccc12)C(=O)N1CCC[C@H]1C(=O)N[C@H](C=O)CC(=O)O [Example 7d]
- pIC50 [1]: > 6.30
- pIC50 [2]: 5.12 to 5.60
- Biliary Excretion [3]: A (category “A” indicates <5%)
- f (g) Xf (h) [3]: D (Category “D” indicates >0.75)

SMILES: COc1ccc(C(=O)N[C@@H](C)C(=O)N2CCC[C@H]2C(=O)N[C@H](C=O)CC(=O)O)cc1 [Example 7f]
- pIC50 [1]: < 5.70
- pIC50 [2]: 5.12 to 5.60
- Biliary Excretion [3]: A (category “A” indicates <5%)
- f (g) Xf (h) [3]: C (Category “C” indicates 0.5-0.75)

SMILES: COCC(=O)N1CCN(C(=O)[C@H](C)NC(=O)c2ccc(N)c(Cl)c2)[C@H](C(=O)N[C@H](C=O)CC(=O)O)C1 [Example 18f]
- pIC50 [1]: < 5.70
- pIC50 [2]: 5.12 to 5.60
- Biliary Excretion [3]: A (category “A” indicates <5%)
- f (g) Xf (h) [3]: D (Category “D” indicates >0.75)

SMILES: O=C[C@H](CC(=O)O)NC(=O)[C@@H]1CCCN1C(=O)[C@H](Cc1cccnc1)NC(=O)c1nccc2ccccc12 [Example 20f]
- pIC50 [1]: 6.00 to 6.30
- pIC50 [2]: > 5.60
- Biliary Excretion [3]: C (Category “C” indicates >10%)
- f (g) Xf (h) [3]: B (Category “B” indicates 0.25-0.49)

SMILES: CSC[C@H](NC(=O)c1nccc2ccccc12)C(=O)N1CCC[C@H]1C(=O)N[C@H](C=O)CC(=O)O [Example 20g]
- pIC50 [1]: > 6.30
- pIC50 [2]: > 5.60
- Biliary Excretion [3]: A (category “A” indicates <5%)
- f (g) Xf (h) [3]: B (Category “B” indicates 0.25-0.49)

SMILES: CS(=O)(=O)CC[C@H](NC(=O)c1nccc2ccccc12)C(=O)N1CCC[C@H]1C(=O)N[C@H](C=O)CC(=O)O [Example 20h]
- pIC50 [1]: > 6.30
- pIC50 [2]: > 5.60

SMILES: CC[C@H](NC(=O)c1cc(Cl)c(O)c(Cl)c1)C(=O)N1CCC[C@H]1C(=O)N[C@H](C=O)CC(=O)O [Example 20m]
- pIC50 [1]: 6.00 to 6.30
- pIC50 [2]: > 5.60

SMILES: CC(C)[C@H](NC(=O)c1ccccc1)C(=O)N1CC(c2ccccc2)[C@H]1C(=O)N[C@H](C=O)CC(=O)O (some centres unmarked) [Example 24a]
- pIC50 [1]: 6.00 to 6.30
- pIC50 [2]: 5.12 to 5.60
- Biliary Excretion [3]: A (category “A” indicates <5%)
- f (g) Xf (h) [3]: C (Category “C” indicates 0.5-0.75)

SMILES: CC(C)[C@H](NC(=O)c1nccc2ccccc12)C(=O)N1CC(c2ccccc2)[C@H]1C(=O)N[C@H](C=O)CC(=O)O (some centres unmarked) [Example 24c]
- pIC50 [1]: > 6.30
- pIC50 [2]: 5.12 to 5.60
- Biliary Excretion [3]: C (Category “C” indicates >10%)
- f (g) Xf (h) [3]: A (category “A” indicates <0.25)

SMILES: CC(C)[C@H](NC(=O)c1nccc2ccccc12)C(=O)N1CC[C@H](C)[C@H]1C(=O)N[C@H](C=O)CC(=O)O [Example 26c]
- pIC50 [1]: 6.00 to 6.30
- pIC50 [2]: 5.12 to 5.60
- Biliary Excretion [3]: C (Category “C” indicates >10%)
- f (g) Xf (h) [3]: A (category “A” indicates <0.25)

SMILES: CC(C)[C@H](NC(=O)c1nccc2ccccc12)C(=O)N1C2CCCCC2C[C@H]1C(=O)N[C@H](C=O)CC(=O)O (some centres unmarked) [Example 26e]
- pIC50 [1]: > 6.30
- pIC50 [2]: > 5.60
- Biliary Excretion [3]: B (Category “B” indicates 5-10%)
- f (g) Xf (h) [3]: B (Category “B” indicates 0.25-0.49)

SMILES: CC(C)[C@H](NC(=O)c1nccc2ccccc12)C(=O)N1[C@@H](c2ccccc2)CC[C@H]1C(=O)N[C@H](C=O)CC(=O)O [Example 26f]
- pIC50 [1]: > 6.30
- pIC50 [2]: 5.12 to 5.60
- Biliary Excretion [3]: C (Category “C” indicates >10%)
- f (g) Xf (h) [3]: A (category “A” indicates <0.25)

SMILES: C[C@H](NC(=O)c1ccc(N)c(Cl)c1)C(=O)N1CC(F)(F)C[C@H]1C(=O)N[C@H](C=O)CC(=O)O [Example 27a]
- pIC50 [1]: > 6.30
- pIC50 [2]: > 5.60
- Biliary Excretion [3]: A (category “A” indicates <5%)
- f (g) Xf (h) [3]: C (Category “C” indicates 0.5-0.75)

SMILES: CC(C)[C@H](NC(=O)c1ccccc1)C(=O)N[C@@H](C)C(=O)N[C@H](C=O)CC(=O)O [Example 29a] (Bz-Val-Ala-Asp-aldehyde)
- pIC50 [1]: > 6.30
- pIC50 [2]: > 5.60

SMILES: C[C@H](NC(=O)[C@@H](NC(=O)c1nccc2ccccc12)C(C)(C)C)C(=O)N[C@H](C=O)CC(=O)O [Example 29g]
- pIC50 [1]: 6.00 to 6.30
- pIC50 [2]: > 5.60
- Biliary Excretion [3]: B (Category “B” indicates 5-10%)
- f (g) Xf (h) [3]: B (Category “B” indicates 0.25-0.49)

SMILES: COc1ccc(C(=O)NC(C(=O)N2N=C(C(C)(C)C)SC2C(=O)NC(C=O)CC(=O)O)C(C)C)cc1 (centres unmarked) [Example 46b]
- pIC50 [1]: < 5.70
- pIC50 [2]: 5.12 to 5.60
- Biliary Excretion [3]: C (Category “C” indicates >10%)
- f (g) Xf (h) [3]: B (Category “B” indicates 0.25-0.49)

SMILES: COc1ccc(C(=O)NC(C(=O)N2CCCC2C(=O)NC(C=O)CC(=O)O)C(C)C)cc1 (centres unmarked) [Example 57, 3-({1-[2-(4-Methoxy-benzoylamino)-3-methyl-butyryl]-pyrrolidine-2-carbonyl}-amino)-4-oxo-butyric acid]
- pIC50 [1]: 6.00 to 6.30
- pIC50 [2]: < 5.12
- Biliary Excretion [3]: B (Category “B” indicates 5-10%)
- f (g) Xf (h) [3]: B (Category “B” indicates 0.25-0.49)

SMILES: Cc1cc(C(=O)N[C@H](C(=O)N2CCCC2C(=O)N[C@H](C=O)CC(=O)O)C(C)C)cc(C)c1O (stereo partly drawn) [Example 65, 3-({l-[2-(4-Hydroxy-3,5-dimethyl-benzoyiamino)-3-methyl-butyryl]-pyrrolidine-2-carbonyl}-amino)-4-oxo-butyric acid]
- pIC50 [1]: 6.00 to 6.30
- pIC50 [2]: > 5.60
- Biliary Excretion [3]: C (Category “C” indicates >10%)
- f (g) Xf (h) [3]: B (Category “B” indicates 0.25-0.49)

SMILES: COc1ccc(C(=O)NC(C(=O)N2CCCC2C(=O)NC(C=O)CC(=O)O)C(C)(C)C)cc1 (centres unmarked) [Example 69, 3-({1-[2-(4-Methoxy-benzoylamino)-3,3-dimethyl-butyryl]-pyrrolidine-2-carbonyl}-amino)-4-oxo-butyric acid]
- pIC50 [1]: > 6.30
- pIC50 [2]: > 5.60
- Biliary Excretion [3]: A (category “A” indicates <5%)
- f (g) Xf (h) [3]: C (Category “C” indicates 0.5-0.75)

SMILES: C[C@H](NC(=O)c1cccc2c1-c1ccccc1C2=O)C(=O)N1CCC[C@H]1C(=O)N[C@H](C=O)CC(=O)O [Example 122a]
- pIC50 [1]: < 5.70
- pIC50 [2]: > 5.60
- Biliary Excretion [3]: A (category “A” indicates <5%)
- f (g) Xf (h) [3]: B (Category “B” indicates 0.25-0.49)

SMILES: C[C@H](NC(=O)c1ccc(N)c(Cl)c1)C(=O)N1CCC[C@H]1C(=O)N[C@H](C=O)CC(=O)O [Example 122b, 3-({-[2-(4-Amino-3-chloro-benzoylamino)-propionyl]-pyrrolidine-2-carbonyl}-amino)-4-oxo-butyric acid]
- pIC50 [1]: 6.00 to 6.30
- pIC50 [2]: > 5.60
- Biliary Excretion [3]: A (category “A” indicates <5%)
- f (g) Xf (h) [3]: C (Category “C” indicates 0.5-0.75)

SMILES: COc1c(Cl)cc(C(=O)N[C@@H](C)C(=O)N2CCC[C@H]2C(=O)N[C@H](C=O)CC(=O)O)cc1Cl [Example 122c, 3-({1-[2-(3,5-Dichloro-4-methoxy-benzoylamino)-propionyl]-pyrrolidine-2-carbonyl}-amino)-4-oxo-butyric acid]
- pIC50 [1]: < 5.70
- pIC50 [2]: 5.12 to 5.60
- Biliary Excretion [3]: B (Category “B” indicates 5-10%)
- f (g) Xf (h) [3]: C (Category “C” indicates 0.5-0.75)

SMILES: COc1c(C)cc(C(=O)N[C@@H](C)C(=O)N2CCC[C@H]2C(=O)N[C@H](C=O)CC(=O)O)cc1C [Example 122d, 3-({1-[2-(4-Methoxy-3,5-dimethyl-benzoylamino)-propionyl]-pyrrolidine-2-carbonyl}-amino)-4-oxo-butyric acid]
- pIC50 [1]: 6.00 to 6.30
- pIC50 [2]: > 5.60
- Biliary Excretion [3]: A (category “A” indicates <5%)
- f (g) Xf (h) [3]: C (Category “C” indicates 0.5-0.75)

SMILES: CC(=O)Nc1ccc(C(=O)N[C@@H](C)C(=O)N2CCC[C@H]2C(=O)N[C@H](C=O)CC(=O)O)cc1Cl [Example 122f, 3-({1-[2-(4-Acetylamino-3-chloro-benzoylamino)-propionyl]-pyrrolidine-2-carbonyl}-amino)-4-oxo-butyric acid]
- pIC50 [1]: 6.00 to 6.30
- pIC50 [2]: > 5.60

SMILES: C[C@H](NC(=O)c1cc(Cl)c(O)c(Cl)c1)C(=O)N1CCC[C@H]1C(=O)N[C@H](C=O)CC(=O)O [Example 122k, 3-({1-[2-(3,5-Dichloro-4-hydroxy-benzoylamino)-propionyl]-pyrrolidine-2-carbonyl}-amino)-4-oxo-butyric acid]
- pIC50 [1]: > 6.30
- pIC50 [2]: > 5.60
